Where two headings read alike, the source gives them in different places.
Legend:
Type in all cases: cell-based
RS4;11-BCL-2 G101V cells = experiment: Cell proliferation assay, engineered RS4;11 cells stably overexpressing BCL-2 G101V (MTS, 168 h); settings: read-out: RS4, 11 BCL2- G101V
Method in brief: (§1)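 Proliferation read-out: MTS for exactly 2 h, then absorbance at 490 nm, with IC50 derived from the fit. Before this, engineered RS4;11 lines (BCL-2 G101V, F104L; 5000 cells/well) were exposed 168 h at 37 °C to serially diluted compound, final 1.4–10000 nM.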

RS4;11-BCL-2 F104L cells = experiment: Cell proliferation assay, engineered RS4;11 cells stably overexpressing BCL-2 F104L (MTS, 168 h); settings: read-out: RS4, 11 BCL2-F104L
Method in brief: as §1

Toledo cells = experiment: Cell proliferation assay, Toledo cells (MTS, 72 h); settings: Toledo cells, MTS, read-out: Toledo IC50
Method in brief: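 IC50 was derived from 490 nm absorbance after a 2 h MTS step. Before that, compounds at 1.5–10000 nM final (nine points) acted on Toledo cells for 72 h at 37 °C, 5% CO2. Cells were seeded at 30000/well in 10% FBS RPMI-1640 and rested 4 h before dosing.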

Row | IC50 (RS4;11-BCL-2 G101V cells; Homo sapiens, RS4-11, 168 h) [nM] | IC50 (RS4;11-BCL-2 F104L cells; Homo sapiens) [nM] | IC50 (RS4;11-BCL-2 G101V cells) [nM] | IC50 (RS4;11-BCL-2 F104L cells) [nM] | Molecule | IC50 (Toledo cells; Homo sapiens) [nM] | IC50 (Toledo cells) [nM]
1 | 14 | 19 |  |  | CC(C)c1ccccc1[C@@H]1CCCN1C1CC2(CCN(c3ccc(C(=O)NS(=O)(=O)c4cc5c(c([N+](=O)[O-])c4)N[C@@H]([C@H]4CC[C@](C)(O)CC4)CO5)c(Oc4cc5c(F)c[nH]c5nc4F)c3)CC2)C1 (single isomer, unassigned) [Example D-55, 2-((3,6-difluoro-1H-pyrrolo[2,3-b]pyridin-5-yl)oxy)-N-(((S)-3-((1r,4S)-4-hydroxy-4-methylcyclohexyl)-5-nitro-3,4-dihydro-2H-benzo [b][1,4]oxazin-7-yl)sulfonyl)-4-(2-((R or S)-2-(2-isopropylphenyl)pyrrolidin-1-yl)-7-azaspiro[3.5]nonan-7-yl)benzamide] | 1 | 
2 | 1 | 1 |  |  | CC(C)c1ccccc1[C@@H]1CCCN1C1CC2(CCN(c3ccc(C(=O)NS(=O)(=O)c4cc5c(c([N+](=O)[O-])c4)N[C@@H]([C@H]4CC[C@](C)(O)CC4)CO5)c(Oc4cc5cc[nH]c5nc4OC[C@H]4CCCN4C)c3)CC2)C1 (single isomer, unassigned) [Example D-130, N-(((S)-3-((1r,4S)-4-hydroxy-4-methylcyclohexyl)-5-nitro-3,4-dihydro-2H-benzo[b][1,4]oxazin-7-yl)sulfonyl)-4-(2-((R or S)-2-(2-isopropylphenyl)pyrrolidin-1-yl)-7-azaspiro[3.5]nonan-7-yl)-2-((6-(((R)-1-methylpyrrolidin-2-yl)methoxy)-1H-pyrrolo[2,3-b]pyridin-5-yl)oxy)benzamide] | 1 | 
3 | 3 | 8 |  |  | COCCOc1nc2[nH]cc(F)c2cc1Oc1cc(N2CCC3(CC2)CN([C@H]2CCC[C@H]2c2ccccc2C(C)C)C3)ccc1C(=O)NS(=O)(=O)c1cc2c(c([N+](=O)[O-])c1)N[C@@H]([C@H]1CC[C@](C)(O)CC1)CO2 (single isomer, unassigned) [Example D-95, 2-((3-fluoro-6-(2-methoxyethoxy)-1H-pyrrolo[2,3-b]pyridin-5-yl)oxy)-N-(((S)-3-((1r,4S)-4-hydroxy-4-methylcyclohexyl)-5-nitro-3,4-dihydro-2H-benzo[b][1,4]oxazin-7-yl)sulfonyl)-4-(2-((1S,2S or 1R,2R)-2-(2-isopropylphenyl)cyclopentyl)-2,7-diazaspiro[3.5]nonan-7-yl)benzamide] | 1 | 
4 | 1 | 1 |  |  | CC(C)c1ccccc1[C@@H]1CCCN1C1CC2(CCN(c3ccc(C(=O)NS(=O)(=O)c4cc5c(c([N+](=O)[O-])c4)N[C@@H]([C@H]4CC[C@](C)(O)CC4)CO5)c(Oc4cc5cc[nH]c5nc4OC[C@@H]4COCCN4C)c3)CC2)C1 (single isomer, unassigned) [Example D-135, N-(((S)-3-((1r,4S)-4-hydroxy-4-methylcyclohexyl)-5-nitro-3,4-dihydro-2H-benzo[b][1,4]oxazin-7-yl)sulfonyl)-4-(2-((R or S)-2-(2-isopropylphenyl)pyrrolidin-1-yl)-7-azaspiro[3.5]nonan-7-yl)-2-((6-(((S)-4-methylmorpholin-3-yl)methoxy)-1H-pyrrolo[2,3-b]pyridin-5-yl)oxy)benzamide] | 1 | 
5 | 1 | 1 |  |  | CC(C)c1ccccc1[C@@H]1CCCN1C1CC2(CCN(c3ccc(C(=O)NS(=O)(=O)c4cc5c(c([N+](=O)[O-])c4)N[C@@H]([C@H]4CC[C@](C)(O)CC4)CO5)c(Oc4cc5cc[nH]c5nc4OC[C@@H]4COCCN4)c3)CC2)C1 (single isomer, unassigned) [Example D-214, N-(((S)-3-((1r,4S)-4-hydroxy-4-methylcyclohexyl)-5-nitro-3,4-dihydro-2H-benzo[b][1,4]oxazin-7-yl)sulfonyl)-4-(2-((R or S)-2-(2-isopropylphenyl)pyrrolidin-1-yl)-7-azaspiro[3.5]nonan-7-yl)-2-((6-(((S)-morpholin-3-yl)methoxy)-1H-pyrrolo[2,3-b]pyridin-5-yl)oxy)benzamide] | 1 | 
6 | 1 | 11 |  |  | CC(C)c1ccccc1[C@@H]1CCCN1C1CC2(CCN(c3ccc(C(=O)NS(=O)(=O)c4cc5c(c([N+](=O)[O-])c4)N[C@@H]([C@H]4CC[C@](C)(O)CC4)CO5)c(Oc4cc5cc[nH]c5nc4OC[C@H]4CCN4C)c3)CC2)C1 (single isomer, unassigned) [Example D-123, N-(((S)-3-((1r,4S)-4-hydroxy-4-methylcyclohexyl)-5-nitro-3,4-dihydro-2H-benzo[b][1,4]oxazin-7-yl)sulfonyl)-4-(2-((R or S)-2-(2-isopropylphenyl)pyrrolidin-1-yl)-7-azaspiro[3.5]nonan-7-yl)-2-((6-(((7)-1-methylazetidin-2-yl)methoxy)-1H-pyrrolo[2,3-b]pyridin-5-yl)oxy)benzamide] | 1 | 
7 | 1 | 1 |  |  | CC(C)c1ccccc1[C@@H]1CCCN1C1CC2(CCN(c3ccc(C(=O)NS(=O)(=O)c4cc5c(c([N+](=O)[O-])c4)N[C@@H]([C@H]4CC[C@](C)(O)CC4)CO5)c(Oc4cc5c(F)c[nH]c5nc4OC4CCN(C)CC4)c3)CC2)C1 (single isomer, unassigned) [Example D-286, 2-((3-fluoro-6-((1-methylpiperidin-4-yl)oxy)-1H-pyrrolo[2,3-b]pyridin-5-yl)oxy)-N-(((S)-3-((1r,4S)-4-hydroxy-4-methylcyclohexyl)-5-nitro-3,4-dihydro-2H-benzo[b] [1,4]oxazin-7-yl)sulfonyl)-4-(2-((R or S)-2-(2-isopropylphenyl)pyrrolidin-1-yl)-7-azaspiro[3.5]nonan-7-yl)benzamide] | 1 | 
8 | 14 | 33 |  |  | CC(C)c1ccccc1[C@@H]1CCCN1C1CC2(CCN(c3ccc(C(=O)NS(=O)(=O)c4cc5c(c([N+](=O)[O-])c4)N[C@@H]([C@H]4CC[C@](C)(O)CC4)CO5)c(Oc4cc5cc[nH]c5nc4Cl)c3)CC2)C1 (single isomer, unassigned) [Example D-18, 2-((6-chloro-1H-pyrrolo[2,3-b]pyridin-5-yl)oxy)-N-(((S)-3-((1r,4S)-4-hydroxy-4-methylcyclohexyl)-5-nitro-3,4-dihydro-2H-benzo[b] [1,4]oxazin-7-yl)sulfonyl)-4-(2-((R or S)-2-(2-isopropylphenyl)pyrrolidin-1-yl)-7-azaspiro[3.5]nonan-7-yl)benzamide] | 1 | 
9 |  |  | 16 | 1 | 2-((3-fluoro-6-methoxy-1H-pyrrolo [2,3-b]pyridin-5-yl)oxy)-N-(((S)- 3-((1r,4S)-4-hydroxy-4- methylcyclohexyl)- 5-nitro-3,4-dihydro- 2H-benzo[b][1,4]oxazin-7-yl) sulfonyl)-4-(2-((1S,2S or 1R,2R)- 2-(2-isopropylphenyl) cyclopentyl)-2,7-diazaspiro[3.5] nonan-7-yl)benzamide [Example D-102] |  | 1

— patent US20230159527A1, “COMPOUNDS AS BCL-2 INHIBITORS” (Fochon Pharmaceuticals, Ltd., priority 2020, published 2023)
